Results: US11253498B2, “Pharmaceutical composition for treatment of bone-related disease” (Nexyon Biotech Co., Ltd., priority 2017, dated 2022)

How the values were obtained:
[1] = test system: preosteoblast cells; experiment: Differentiation into osteoblasts, alizarin red S staining, cholesterol sulphate with or without Formula 2 (Example 2-2); assay type: cell-based, mice; conditions: FIG. 8
Method: The calvarium was removed from 1- to 3-day-old mice, and then subjected to enzymatic treatment with 1 mg/ml collagenase and 2 mg/ml dispase, to obtain preosteoblast cells. […] Then, differentiation into osteoblasts was induced. Replacement of the medium for differentiation was performed at 2- to 3-day intervals and differentiation was induced for a total of 14 to 21 days. Alizarin red S staining was used to evaluate the differentiation into osteoblasts, thereby quantitatively evaluate the degree of mineralized nodule production. The differentiated cells were fixed in 10% neutral formalin at 4° C. for 20 minutes, and then stained with 1.36% alizarin red solution (pH 4.1 to 4.3) for 40 minutes. The stained pattern was photographed or scanned. […] The degree of differentiation into osteoblasts is illustrated in FIG. 8.

[2] = test system: ovary-extracted mouse model; experiment: Drug administration in ovary-extracted mouse model, femur micro-CT (Example 2-1); assay type: in vivo, C57BL/6 female mice; conditions: 5 mg/kg oral, once a day, five days a week, 4 weeks; vs OVX group receiving vehicle only; FIG. 7
Source text: Twenty-four 8-week-old C57BL/6 female mice were randomly divided into three groups, that is, control group (sham), ovary-extracted group (OVX), and OVX+Formula 2 group obtained by administering the compound of Formula 2 to the ovary-extracted group, each group consisting of 8 mice. All three groups were anesthetized using zoletil and rompun. Then, the OVX and OVX+Formula 2 groups were subjected to ovary extraction, and then sutured. The control group was subjected to ovary exposure, and then sutured without ovarian removal. Osteoporosis was induced for 4 weeks.
Starting from 4 weeks after ovarian extraction, on five days a week and once a day, the control group and the OVX group orally received 200 μl of vehicle (tetrahydrofuran:PEG-400:water=1:6:3 in volume), and the OVX+Formula 2 group orally received 200 μl obtained by mixing 5 mg/kg of compound of Formula 2 with a vehicle.
After oral administration for 4 weeks, all mice were sacrificed and the femur was extracted therefrom. The extracted femur was fixed in 10% neutral formalin. Photographs were taken at 7.1 μm voxel size using Skyscan 1173 micro-CT machine, and then bone density was analyzed by CTAn program. The results are illustrated in FIG. 7.

[3] = test system: preosteoblast cells; experiment: Osteoblast mineralized nodules, alizarin red staining (Example 1-2); assay type: cell-based, mice; conditions: vs negative control (0 μM); for amount of pigments colored in the nodules (differentiation of preosteoblast cells): alizarin red staining, 21 days, 0 to 50 μM, FIG. 1; for effect on the differentiation into osteoblasts (quantified, absorbance 570 nm): concentration series, FIG. 2 and FIG. 3
Method: In order to isolate preosteoblast cells, the calvarium was removed from 1- to 3-day-old mice, and then preosteoblast cells were obtained via a process in which the calvarium was subjected to treatment with 1 mg/ml collagenase and 2 mg/ml dispase.
Here, the medium for differentiation induction was replaced with fresh medium at 2- to 3-day intervals, and differentiation induction was performed for a total of 21 days. In order to identify the differentiation into osteoblasts, alizarin red staining was performed. Differentiation-induced cells were fixed by being incubated with 10% neutral formalin at 4° C. for 20 minutes, and then stained by being incubated with 1.36% alizarin red solution (pH 4.1 to 4.3) for 40 minutes. The results are illustrated in FIG. 1.
The results obtained by performing quantification with tauroursodeoxycholic acid, deoxycholic acid, or taurocholic acid are illustrated in FIG. 3.

Compound | amount of pigments colored in the nodules (differentiation of preosteoblast cells) [3] | effect on the differentiation into osteoblasts (quantified, absorbance 570 nm) [3] | also measured
CC(C)CCC[C@@H](C)[C@H]1CC[C@H]2[C@@H]3CC=C4C[C@@H](OS(=O)(=O)O)CC[C@]4(C)[C@H]3CC[C@]12C [Formula 1, [(3S,8S,9S,10R,13R,14S,17R)-10,13-dimethyl-17-[(2R)-6-methylheptan-2-yl]-2,3,4,7,8,9,11,12,14,15,16,17-dodecahydro-1H-cyclopenta[a]phenanthren-3-yl] hydrogen sulphate] |  |  | differentiation into osteoblasts ([1]; 0 to 50 μM cholesterol sulphate alone): increases the differentiation into osteoblasts in a dose-dependent manner
NS(=O)(=O)Oc1ccc2c3c(c(=O)oc2c1)CCCCC3 [Formula 2, 6-oxo-6,7,8,9,10,11-hexahydrocyclohepta[c]chromen-3-yl sulfamate] |  |  | increase in the volume of trabecular bone [2]: 90%; differentiation into osteoblasts ([1]; 5 μM compound of Formula 2 alone): does not increase; differentiation into osteoblasts ([1]; 5 μM compound of Formula 2 in combination with 0 to 50 μM cholesterol sulphate): further enhances an effect of cholesterol sulphate
C[C@H](CCC(=O)O)[C@H]1CC[C@H]2[C@@H]3CC[C@@H]4C[C@H](O)CC[C@]4(C)[C@H]3C[C@H](O)[C@]12C [deoxycholic acid] | no effect |  | 
C[C@H](CCC(=O)NCCS(=O)(=O)O)[C@H]1CC[C@H]2[C@@H]3[C@H](O)C[C@@H]4C[C@H](O)CC[C@]4(C)[C@H]3C[C@H](O)[C@]12C [taurocholic acid] | no effect | no significant difference | 
C[C@H](CCC(=O)NCCS(=O)(=O)O)[C@H]1CC[C@H]2[C@@H]3[C@@H](O)C[C@@H]4C[C@H](O)CC[C@]4(C)[C@H]3CC[C@]12C [tauroursodeoxycholic acid] | no effect | no significant difference | 
